Data as given in patent US10449200B2, “Combined inhibition of the vitamin D receptor and poly(ADP) ribose polymerase (PARP) in the treatment of cancer” (Institute for Cancer Research, priority 2014, dated 2019).
Like-named read-outs stand apart in the source and are kept apart here.

Key:
[1] = tested on: BxPC3 cells; experiment: Clonogenic survival assay, gemcitabine kill curves; assay type: cell-based, human
Experimental: (§1) Cell culture and chemicals. Panc1, BxPC3, and CFPAC1 cells were purchased from American Type Culture Collection (ATCC) and banked in house until use. Cell lines were cultured in DMEM/10% FBS supplemented with 2 mM glutamine and 1% penicillin, streptomycin, and kanamycin (PSK) and were maintained at 37° C. in 5% CO2. Charcoal stripped (in house cell culture facility) and dialyzed FBS (Life Technologies; 509 26400-036) were used. Gemcitabine was obtained from the in house pharmacy. Rucaparib and trichostatin A were gifts.
(§2) Cell viability assays. For clonogenic assays, 1000 cells per well were seeded into 6 well plates on day 0. Cells were treated with gemcitabine at various doses on day 1 for 24 hours, Gemcitabine was washed out on day 2, and cells were allowed to grow for a subsequent 10 days before being fixed (10% methanol+10% acetic acid) and stained with crystal violet (0.4% in 20% ethanol) for colony counting and quantitation. For Rucaparib clonogenic assays, the drug was added at various doses 24 hours after cell plating, and cells were allowed to grow for a subsequent 10 days in the presence of Rucaparib. For TSA clonogenic assays, the drug was added for 4 hours prior to addition of gemcitabine or vehicle for another 18 hours before drugs were washed away, and cells were allowed to grow in drug-free medium for 10 days.

[2] = tested on: CFPAC1 cells; experiment: Clonogenic survival assay, gemcitabine kill curves; assay type: cell-based; conditions: Homo sapiens
Experimental: as §1, §2

[3] = tested on: BxPC3 cells; experiment: Immunofluorescence of DNA damage foci (phospho-γH2AX, Rad51, 53BP1) after gemcitabine; assay type: cell-based, human; conditions: for cells positive for Rad51 foci (>5 foci/nucleus): 18 hrs post gemcitabine
Experimental: For Immunofluorescence, cells were plated onto coverslips 24 hours pre-gemcitabine treatment. At different timepoints post gemcitabine treatment, cells were permeablized, fixed (4% paraformaldehyde) and stained. Antibodies to γH2AX (Millipore; 05-636), Rad51 (a gift), and 53BP1 were used. Alexa Fluor-conjugated (488, 555, and 647 nm) secondary antibodies (Molecular probes; A-11029, A-21428, A-21247) were used at a final concentration of 1 and nuclei counterstained with DAPI. Images were captured using a 40× or 63× high NA objective mounted on a semi-automated inverted microscope (Nikon TEi) with a charge-coupled device camera (Photometrics1394) using Nikon Elements 2.0. Exposure times for antibodies were optimized for control samples and identical exposure times used for the experimental samples. Images were quantitated and analyzed using Nikon Elements 2.0. Confocal images were taken using a Leica TCS-SP8 microscope controlled by LAS software (Leica Microsystems).
It was investigated if these repair pathways were abrogated after VDR knockdown by staining for foci formation by phospho-γH2AX, Rad51, and 53BP1, and measuring intensities after gemcitabine treatment (FIGS. 3, 4, and 5). BxPC3 (high VDR expression) and Panc1 (low VDR expression) cells were treated with gemcitabine (50 nM) for 2, 4, 8, and 18 hours, and fixed and stained for phospho-γH2AX, 53BP1, and Rad51. Foci quantitation included counting of nuclei with >5 foci and a separate measurement of the sum intensities of foci that were averaged for 5 separate immunofluorescence experiments. […] Weak but detectable phospho-γH2AX foci were visible within 4 hours of gemcitabine treatment in BxPC3 cells while it took 18 hours for foci to form in Panc1 cells (FIG. 3, A). Similarly, Rad51 foci were visible after 8 hours of gemcitabine treatment in BxPC3 cells compared to 18 hours in Panc1 cells (FIG. 3, A, FIG. 4, and FIG. 5).

[4] = tested on: BxPC3 cells; experiment: TSA clonogenic assay (TSA + gemcitabine); assay type: cell-based; conditions: Homo sapiens
Experimental: as §2
To test the functional relevance of the TSA mediated Rad51 foci formation in the VDR knockdown cells, whether TSA altered the sensitivity to gemcitabine was investigated. […] Parental cell sensitivity to gemcitabine was increased by TSA treatments at the concentrations tested (p=0.02).

[5] = tested on: Panc1 cells; experiment: Time-lapse microscopy of H2B:gfp cells; assay type: cell-based, human; conditions: gemcitabine 50 nM
Experimental: Microscopy. For timelapse studies, Panc1 cells with stable expression of Histone H2B fused at its C-terminus to GFP were seeded into 6-well plates. 24 hours post cell plating, gemcitabine (50 nM) was added before timelapse was commenced. The plate was placed in a 37° C. chamber; bright-field and fluorescent images were taken every 5 minutes for 48 hours using a Nikon TE2000S microscope controlled by Metamorph (Molecular Devices). Three independent movies were conducted for each condition. Movies were allowed to commence for 48 hours for each independent experiment.
Time-lapse microscopy was used to track the fates of gemcitabine-treated Panc1 cells that stably expressed a H2B:gfp fusion protein that labeled chromosomes. Cells were transfected with siRNAs, treated with vehicle or gemcitabine and monitored every 10 minutes for 48 hours (FIG. 2).

[6] = BxPC3 VDRkd, 18 hours after gemcitabine
[7] = BxPC3 VDRkd, 18 hours of gemcitabine
[8] = Panc1 cells or VDR depleted BXPC3 versus BxPC3, after gemcitabine
[9] = parental BxPC3, 18 hours of gemcitabine

Structure (SMILES): Nc1ccn([C@@H]2O[C@H](CO)[C@@H](O)C2(F)F)c(=O)n1 [gemcitabine]
- reduction in gemcitabine IC50 after depletion of VDR ([1]; BXPC3 cells): ~3 fold
- IC50 ([1]; BxPC3 VDRkd cells transfected with WT-VDR, read-out: IC50 gemcitabine): ~260 nM
- IC50 ([1]; Homo sapiens, BXPC-3, BxPC3, VDR siRNA, read-out: mean IC50 gemcitabine): ~60 nM
- IC50 ([1]; Homo sapiens, BXPC-3, BxPC3, control shRNA, read-out: IC50 gemcitabine): ~80 nM
- IC50 ([1]; Homo sapiens, BXPC-3, BxPC3, control siRNA, read-out: mean IC50 gemcitabine): ~200 nM
- IC50 ([1]; Homo sapiens, BXPC-3, BxPC3, p300 shRNA, read-out: IC50 gemcitabine): ~40 nM
- IC50 ([1]; Homo sapiens, BXPC-3, BxPC3 VDRkd cells transfected with WT-VDR, read-out: IC50 gemcitabine): ~300 nM
- IC50 ([1]; Homo sapiens, BXPC-3, BxPC3 VDRkd cells, WT-VDR co-transfected with AML1/ETO, read-out: IC50 gemcitabine): ~80 nM
- IC50 ([1]; Homo sapiens, BXPC-3, BxPC3 VDRkd cells, WT-VDR co-transfected with S237M mutant, read-out: IC50 gemcitabine): ~60 nM
- IC50 ([1]; Homo sapiens, BXPC-3, BxPC3 VDRkd cells, untransfected, read-out: IC50 gemcitabine): ~50 nM
- IC50 ([1]; Homo sapiens, BXPC-3, BxPC3 VDRkd cells, vector transfected, read-out: IC50 gemcitabine): ~50 nM
- IC50 ([1]; Homo sapiens, BXPC-3, BxPC3 cells (highest VDR levels), read-out: mean IC50 gemcitabine): ~200 nM
- increase of gemcitabine IC50 over vector controls ([1]; wild type VDR transfected into VDR depleted BXPC3 cells): ~6 fold
- IC50 ([2]; CFPAC-1, CFPAC1, VDR depleted (VDR siRNA), read-out: IC50 gemcitabine): ~20 nM
- IC50 ([2]; CFPAC-1, CFPAC1, control siRNA, read-out: mean IC50 gemcitabine): ~45 nM
- IC50 ([2]; CFPAC-1, CFPAC1 cells, read-out: IC50 gemcitabine): ~45 nM
- time until Rad51 foci detected after gemcitabine ([3]; BxPC3 VDRkd cells): 18 h
- time until phospho-γH2AX foci detected after gemcitabine ([3]; BxPC3 VDRkd cells): 8 h
- cells exhibiting Rad51 foci ([3]; BxPC3 VDRkd, 4 hrs in gemcitabine (50 nM), absence of TSA): 11%
- cells with diffuse phospho-γH2AX pattern [3, 6]: 82%
- cells with punctate phospho-γH2AX foci [3, 6]: 18%
- cells with clear Rad51 foci [3, 7]: 28%
- cells with diffuse 53BP1 pattern [3, 7]: 69%
- cells with diffuse Rad51 staining [3, 7]: 72%
- cells with punctate 53BP1 foci [3, 7]: 31%
- cells positive for Rad51 foci (>5 foci/nucleus) ([3]; BxPC3 control cells): ~84%
- cells positive for Rad51 foci (>5 foci/nucleus) ([3]; BxPC3 transfected with p300 shRNA): ~22%
- delay of Rad51 foci formation kinetics [3, 8]: 4 h
- delay of phospho-γH2AX foci formation kinetics [3, 8]: 6 h
- reduction of Rad51 foci intensity [3, 8]: 1.5 fold
- reduction of phospho-γH2AX foci intensity [3, 8]: 2 fold
- reduction of Rad51 focal intensity ([3]; p300 knockdown cells compared to control cells, gemcitabine treated): ~35%
- cells with punctate phospho-γH2AX foci ([3]; parental BxPC3, 18 hours after gemcitabine): 94%
- cells with clear Rad51 foci [3, 9]: 92%
- cells with diffuse 53BP1 pattern [3, 9]: 10%
- cells with diffuse Rad51 staining [3, 9]: 8%
- cells with punctate 53BP1 foci [3, 9]: 90%
- time until Rad51 foci visible after gemcitabine ([3]; parental BxPC3, gemcitabine 50 nM): 8 h
- cells exhibiting Rad51 foci ([3]; parental BxPC3, within 4 hours of gemcitabine treatment): 92%
- IC50 ([4]; BXPC-3, BxPC3 VDRkd cells, with TSA (500 nM), read-out: IC50 of gemcitabine): 50 nM
- IC50 ([4]; BXPC-3, BxPC3 VDRkd cells, without TSA, read-out: IC50 of gemcitabine): 50 nM
- IC50 ([4]; BXPC-3, BxPC3 parental cells, gemcitabine alone, read-out: IC50 gemcitabine): ~200 nM
- IC50 ([4]; BXPC-3, BxPC3 parental cells, gemcitabine plus TSA (500 nM), read-out: IC50 gemcitabine): 100 nM
- cell fate in 48 hour timelapse ([5]; Panc1, Chk1 knockdown): enter mitosis where many died or died shortly after exit from mitosis
- cell fate in 48 hour timelapse ([5]; Panc1, VDR siRNA): never entered mitosis, but nevertheless died
- cell fate in 48 hour timelapse ([5]; Panc1, control siRNA): stopped proliferation
